Source: PMC9143738, “New Chemotypes for the Inhibition of (p)ppGpp Synthesis in the Quest for New Antimicrobial Compounds” (Molecules, 2022)

Tests used:
Format in all cases: binding, S. equisimilis
RelSeq 1–385 [1] = target: T1, RelSeq 1–385 (Streptococcus dysgalactiae subsp. equisimilis, UniProt Q54089); test: Thermal shift assay on RelSeq 1–385
T1 construct: His-tag (C); host or cells: BL21(DE3) Escherichia coli
From the text: Thermal shift is an experimental technique in which protein thermal denaturation is monitored following the increase in fluorescence reported by a protein-bound dye. In particular, an environment-sensitive hydrophobic dye (e.g., SYPRO Orange) binds to hydrophobic regions that become progressively exposed during thermal denaturation, resulting in an increase in its fluorescence emission. Since the binding of small molecules (e.g., fragments) to the protein can cause conformational changes that affect its melting temperature, this technique allows the screening of several compounds in a range of concentrations without consuming sizeable amounts of protein.
We therefore evaluated the affinity of the 18 fragments selected from our in silico screening for the bifunctional protein RelSeq by titration of the protein in a thermal shift assay (Table 1).
(§1) Thermal shift assays on selected fragments vs. RelSeq constructs. The binding of the selected fragments to RelSeq constructs was assessed by titration of the protein in thermal shift assays, performed using a Step One Real-Time PCR system (Thermo Fisher Scientific, Waltham, MA, USA). Assays were performed in 20 mM Tris-HCl, pH 8, containing 150 mM NaCl. The final protein concentration was kept at 0.5 mg/mL for all RelSeq constructs, and the fluorescent Protein Thermal Shift Dye (Thermo Fisher Scientific, Waltham, MA, USA) was used to monitor protein unfolding within the excitation/emission ranges 470–505/540–700 nm. […] Assays were performed in triplicate at a final volume of 15 µL in MicroAmp™ Fast Optical 48-well reaction plates (Thermo Fisher Scientific, Waltham, MA, USA) sealed with adhesive films. Plates were heated from 25 to 90 °C with a heating rate of 0.5 °C/min. The Kd of protein–ligand complexes engaged by RelSeq constructs with the tested fragments was calculated from the plot of protein melting temperature variations as a function of fragment concentrations with the equation for Ligand Binding (1 site) provided with the software GraFit 5.0 (Erithacus Software, Staines, UK).

[2] = target: T2, RelSeq SYNTH (residues 79–385) (Streptococcus dysgalactiae subsp. equisimilis, UniProt Q54089); test: Thermal shift assay on RelSeq SYNTH; conditions: titration 0.3–10 mM, pH 8
T2 construct: His-tag (C); made in house; host or cells: BL21(DE3) Escherichia coli
Method: as §1, with “USA).” for “USA). Assays were performed in 20 mM Tris-HCl, pH 8, containing 150 mM NaCl. The final protein concentration was kept at 0.5 mg/mL for all RelSeq constructs, and the fluorescent Protein Thermal Shift Dye (Thermo Fisher Scientific, Waltham, MA, USA) was used to monitor protein unfolding within the excitation/emission ranges 470–505/540–700 nm.”

[3] = target: T3, RelSeq HYD (residues 1–224) (Streptococcus dysgalactiae subsp. equisimilis, UniProt Q54089); test: Thermal shift assay on RelSeq HYD; conditions: titration 0.3–10 mM, pH 8
T3 construct: His-tag (C); made in house; host or cells: BL21(DE3) Escherichia coli
Method: as §1, with “USA).” for “USA). Assays were performed in 20 mM Tris-HCl, pH 8, containing 150 mM NaCl. The final protein concentration was kept at 0.5 mg/mL for all RelSeq constructs, and the fluorescent Protein Thermal Shift Dye (Thermo Fisher Scientific, Waltham, MA, USA) was used to monitor protein unfolding within the excitation/emission ranges 470–505/540–700 nm.”

RelSeq 1–385 [4] = target: T1, RelSeq 1–385; test: Tryptophan assay; conditions: read-out: Kd RelSeq 1–385 measured by tryptophan assay (converted)
From the text: With the aim of studying protein–ligand interactions between RelSeq constructs and selected fragments, we evaluated the use of different techniques, such as tryptophan assay, microscale thermophoresis (MST), isothermal calorimetry (ITC) or thermal shift assay (TSA). The tryptophan assay is based on ligand-induced conformational changes in the local environment surrounding tryptophan residues in the target protein. Irradiation at 280 nm is followed by the detection of tryptophan fluorescence emission at different wavelengths. We used this technique to measure the Kd values of the natural substrates GDP and ATP (see below), but it is not applicable in the case of fragments due to their high absorbance at 280 nm. On the other hand, the currently available protein-labeling reagents for MST were not compatible with our protein constructs. We chose TSA over ITC due to its higher potential throughput and lower amount of protein required.

RelSeq 1–385 [5] = target: T1, RelSeq 1–385; test: STD-NMR with RelSeq (1–385); conditions: fragment:protein ratio 1000:1; fragment concentration 3 mM
Method: (§2) The relatively weak affinity of the fragments measured by TSA directed us towards NMR methods to assess the specificity of the fragments-protein interactions. […] In particular, STD (Saturation Transfer Difference) exploits NOE effects between the protein and the ligand to map target–ligand interactions and to characterize biologically relevant complexes.
(§3) STD-NMR experiments on selected fragments vs. RelSeq constructs. Experiments were performed on a 600 MHz Bruker Avance spectrometer. All experiments were acquired at 298 and 283 K on the free ligands in deuterated phosphate buffer pH 7.4. A DMSO-d6 percentage of about 5% was added to dissolve the fragments. In 1D spectra, water suppression was achieved by excitation sculpting sequence. STD NMR experiments were performed using WATERGATE 3-9-19 pulse sequence for water suppression. On-resonance irradiation of the protein was performed at a chemical shift of −0.05 ppm and 10 ppm; off-resonance irradiation was applied at 200 ppm, where no protein signals were visible. Selective pre-saturation of the protein was achieved by a train of Gauss-shaped pulses of 49 ms in length each. STD spectra were acquired with a saturation time of 2.94 s for all compounds. Blank experiments were conducted in the absence of protein in order to avoid artifacts.

RelSeq SYNTH (79–385) = target: T4, RelSeq SYNTH (79–385) (Streptococcus dysgalactiae subsp. equisimilis, UniProt Q54089); test: STD-NMR with RelSeq SYNTH; conditions: fragment:protein ratio 1000:1; fragment concentration 3 mM
T4 construct: His-tag (C); made in house; host or cells: BL21(DE3) Escherichia coli
Method: as §2, §3

RelSeq HYD (1–224) = target: T5, RelSeq HYD (1–224) (Streptococcus dysgalactiae subsp. equisimilis, UniProt Q54089); test: STD-NMR with RelSeq HYD; conditions: fragment:protein ratio 1000:1; fragment concentration 3 mM
T5 construct: His-tag (C); made in house; host or cells: BL21(DE3) Escherichia coli
Method: as §2, §3

[6] = thermal shift assay, titration 0.3–10 mM, pH 8

T1 sequence (Q54089 1-385): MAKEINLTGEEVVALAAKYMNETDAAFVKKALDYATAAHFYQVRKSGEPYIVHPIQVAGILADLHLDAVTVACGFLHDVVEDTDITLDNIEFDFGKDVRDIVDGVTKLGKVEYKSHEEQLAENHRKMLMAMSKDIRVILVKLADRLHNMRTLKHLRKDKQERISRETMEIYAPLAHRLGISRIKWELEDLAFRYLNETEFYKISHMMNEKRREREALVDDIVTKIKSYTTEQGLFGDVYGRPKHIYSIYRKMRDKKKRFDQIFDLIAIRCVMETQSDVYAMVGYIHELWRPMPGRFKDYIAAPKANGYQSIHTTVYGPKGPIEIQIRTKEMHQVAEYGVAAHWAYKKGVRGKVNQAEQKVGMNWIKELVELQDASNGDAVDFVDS
T2 sequence (Q54089 79-385): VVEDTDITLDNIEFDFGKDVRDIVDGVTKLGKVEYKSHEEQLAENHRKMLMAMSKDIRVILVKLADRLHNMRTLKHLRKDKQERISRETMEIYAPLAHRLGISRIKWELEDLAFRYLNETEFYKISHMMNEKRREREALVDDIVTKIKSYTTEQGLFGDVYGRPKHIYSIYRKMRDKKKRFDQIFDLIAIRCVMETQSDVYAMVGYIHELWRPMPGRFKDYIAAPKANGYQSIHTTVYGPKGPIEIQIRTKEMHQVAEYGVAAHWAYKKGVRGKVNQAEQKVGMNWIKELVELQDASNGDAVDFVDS
T3 sequence (Q54089 1-224): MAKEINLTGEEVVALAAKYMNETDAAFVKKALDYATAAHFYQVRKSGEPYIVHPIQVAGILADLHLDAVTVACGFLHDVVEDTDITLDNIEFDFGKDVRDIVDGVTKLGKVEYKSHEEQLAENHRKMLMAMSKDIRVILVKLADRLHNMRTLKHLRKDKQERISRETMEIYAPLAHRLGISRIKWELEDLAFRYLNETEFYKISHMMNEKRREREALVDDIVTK
T4 sequence (Q54089 79-385): as the sequence (Q54089 79-385) above
T5 sequence (Q54089 1-224): as the sequence (Q54089 1-224) above

Structure (SMILES)	Kd (RelSeq 1–385 [1]) [mM]	Kd [2] [mM]	Kd RelSeq HYD [3]	also measured
O=C(O)c1ccc2[nH]ccc2c1 [I2]	2.5 ± 0.6	5.5 ± 0.9	No binding	–
COc1cc(C(=O)O)ccc1N [A7]	4 ± 0.9	4.3 ± 0.5	No binding	–
Nc1ncnc2c1ncn2[C@@H]1O[C@H](COP(=O)(O)OP(=O)(O)OP(=O)(O)O)[C@@H](O)[C@H]1O [ATP, reference compound]	–	–	–	Kd (RelSeq 1–385 [1]; thermal shift assay, titration 0.3–10 mM, pH 8, read-out: Kd RelSeq 1–385): 0.49 ± 0.09 mM; Kd (RelSeq 1–385 [4]): 0.39 mM
Nc1ccccc1C(=O)O [A1]	1.2 ± 0.3	10.8 ± 2.2	No binding	STD-NMR interaction with RelSeq (1–385) (RelSeq 1–385 [5]): good interaction for the aromatic protons; STD-NMR interaction with RelSeq SYNTH (79–385) (RelSeq SYNTH (79–385)): Comparable overall STD intensities; STD-NMR interaction with RelSeq HYD (1–224) (RelSeq HYD (1–224)): did not produce any magnetization transfer
O=C(O)c1cc2nc[nH]c2cc1C(=O)O [B4]	–	–	No binding	Kd RelSeq 1–385 (RelSeq 1–385 [1]; [6]): No binding; Kd RelSeq SYNTH [2]: No binding
O=C(O)c1cccc2[nH]cnc12 [B3]	3.4 ± 0.3	4.3 ± 0.4	–	Kd [3]: 3.3 ± 0.9 mM
COc1ccc(C(=O)O)cc1N [A5]	1.1 ± 0.2	2.2 ± 0.4	No binding	–
OCc1ccc2[nH]cnc2c1 [B1]	–	–	No binding	Kd RelSeq 1–385 (RelSeq 1–385 [1]; [6]): No binding; Kd RelSeq SYNTH [2]: No binding; STD-NMR interaction with RelSeq (1–385) (RelSeq 1–385 [5]): did not show any significant interaction
O=C(O)c1ccc2ocnc2c1 [BO1]	2.2 ± 0.3	2.7 ± 0.6	No binding	–
O=C(O)c1ccc2nn[nH]c2c1 [BT1]	–	–	No binding	Kd RelSeq 1–385 (RelSeq 1–385 [1]; [6]): No binding; Kd RelSeq SYNTH [2]: No binding
Nc1ccc(F)cc1C(=O)O [A3]	1.5 ± 0.1	5.5 ± 0.9	No binding	–
Nc1ccc(C(=O)O)c(Cl)c1 [A6]	4.3 ± 1.1	6.5 ± 1.2	No binding	–
CC(C)c1cc(C(=O)O)nc2ncnn12 [TP1]	3.4 ± 0.8	8.3 ± 1.6	No binding	–
O=C(O)c1ccc2[nH]cnc2c1 [B2]	–	–	–	Kd RelSeq 1–385 (RelSeq 1–385 [1]; [6]): Biphasic; Kd RelSeq SYNTH [2]: No binding; Kd [3]: 1.9 ± 0.7 mM
O=C(O)c1ccc2cc[nH]c2c1 [I1]	6.5 ± 1.1	9.6 ± 1.5	No binding	–
O=C(O)c1cccc2[nH]ccc12 [I3]	4 ± 0.5	9.9 ± 4.5	No binding	–
Nc1cccc(C(=O)O)c1 [A4]	6.6 ± 0.1	9.8 ± 2.8	No binding	–
Nc1c(Cl)cc(Cl)cc1C(=O)O [A2]	–	–	No binding	Kd RelSeq 1–385 (RelSeq 1–385 [1]; [6]): No binding; Kd RelSeq SYNTH [2]: No binding; STD-NMR interaction with RelSeq (1–385) (RelSeq 1–385 [5]): did not show any significant interaction
O=C(O)Cc1c[nH]c2ccc(F)cc12 [I4]	3.2 ± 0.7	> 15	No binding	–
